Experimental data reported in publication PMC8123127, “Structural Bases for the Synergistic Inhibition of Human Thymidylate Synthase and Ovarian Cancer Cell Growth by Drug Combinations” (Cancers, 2021).
Like-named read-outs stand apart in the source and are kept apart here.

What was measured:
Assay in all cases: cells
[1] = test system: 2008 cells; set-up: species or system C13*, A2780, A2780/CP; growth inhibition of human ovarian cancer cell lines after 72 h treatment, cell counts; details: 72 h
Procedure: (§1) The drug concentrations used in the combinations were based on the IC50s. These are reported in Table S3 of the Supplementary Information. The effects of binary combinations were determined with both drug concentrations lower than their IC50s and were characterized in terms of the synergism quotient. […] With 5 μM 5FU alone, cell growth inhibitions were 24.7, 21.2, 28.3, and 27.1% for 2008, C13*, A2780, and A2780/CP, respectively. […] The bars represent the mean of duplicate cell counts on three separate experiments. A quotient > 1 indicates synergism, =1, additivity <1 antagonism. Error bars represent SEM.

[2] = test system: A2780/CP cells; set-up: species or system 2008, C13*; growth inhibition of human ovarian cancer cell lines after 72 h treatment, cell counts; details: A2780C/P, 72 h
Procedure: as §1

[3] = test system: A2780 cells; set-up: species or system 2008, C13*, A2780/CP; growth inhibition of human ovarian cancer cell lines after 72 h treatment, cell counts; details: Homo sapiens, A2780, 72 h
Procedure: as §1

[4] = test system: C13* cells; set-up: species or system 2008, A2780, A2780/CP; growth inhibition of human ovarian cancer cell lines after 72 h treatment, cell counts; details: Homo sapiens, C13, 72 h
Procedure: as §1

IC50 ([2]; read-out: 5-FU (µM) IC50) [µM]	IC50 ([3]; read-out: 5-FU (µM) IC50) [µM]	IC50 ([2]; read-out: RTX (nM) IC50) [µM]	IC50 ([3]; read-out: RTX (nM) IC50) [µM]	SMILES	IC50 ([1]; read-out: 5-FU (µM) IC50) [µM]	IC50 ([4]; read-out: 5-FU (µM) IC50) [µM]	IC50 ([1]; read-out: RTX (nM) IC50) [µM]	IC50 ([4]; read-out: RTX (nM) IC50) [µM]
12.9 ± 1.1	9.5 ± 0.8			O=c1[nH]cc(F)c(=O)[nH]1 [5-FU, 5-fluorouracil]	6.3 ± 0.4	12.4 ± 0.8		
		0.0311 ± 0.0029	0.0086 ± 0.0012	Cc1nc(=O)c2cc(CN(C)c3ccc(C(=O)N[C@@H](CCC(=O)O)C(=O)O)s3)ccc2[nH]1 [RTX, N-[(5-{methyl[(2-methyl-4-oxo-1,4-dihydroquinazolin-6-yl)methyl]amino}-2-thienyl)carbonyl]-L-glutamic acid]			0.0095 ± 0.001	0.0262 ± 0.003
